We go through 21 molecules from US7608626B2, “Substituted indolizines and derivatives as CNS agents” (Wyeth, priority 2004, dated 2009).

Where a name gives a salt, the structure may show the parent alone. Read-outs that look alike come from different tables or passages of the source.

Data set [1] has as its target T1, human 5-hydroxytryptamine-2C (h-5-HT2C) receptor (Homo sapiens, UniProt P28335).
T1 construct: expressed in transfected cells; host or cells: Chinese Hamster Ovary (CHO) cells; membrane preparation
T1 sequence (P28335 33-458): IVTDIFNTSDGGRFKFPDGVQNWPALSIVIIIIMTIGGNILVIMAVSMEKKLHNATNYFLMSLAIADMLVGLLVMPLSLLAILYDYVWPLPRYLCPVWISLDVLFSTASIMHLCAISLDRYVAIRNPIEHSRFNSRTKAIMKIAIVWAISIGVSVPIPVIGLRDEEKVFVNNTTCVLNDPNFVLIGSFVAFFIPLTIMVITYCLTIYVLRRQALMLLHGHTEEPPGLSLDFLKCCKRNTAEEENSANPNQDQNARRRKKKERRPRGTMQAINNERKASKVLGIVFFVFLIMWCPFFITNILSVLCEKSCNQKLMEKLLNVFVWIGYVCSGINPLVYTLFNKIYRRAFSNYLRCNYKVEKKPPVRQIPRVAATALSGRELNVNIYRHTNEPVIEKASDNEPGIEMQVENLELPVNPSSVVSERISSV
In words: [125I]DOI binding to membranes of CHO cells expressing h-5-HT2C receptor.

A further data set concerns the target T2, human 5-HT2C receptor (Homo sapiens, UniProt P28335).
T2 construct: expressed in transfected cells
T2 sequence (P28335 33-458): T1 sequence (P28335 33-458)
In words: 5-HT2C receptor-stimulated calcium mobilization (FLIPR) in CHO cells. Conditions: for Emax: CHO, read-out: 5-HT2C Function Emax (%); for EC50: calcium mobilization, CHO cells, read-out: 5-HT2C Function EC50. Format: cell-based.

In turn, `CCc1c(-c2ccccc2)c(CCN)c2ccccn12` (as salt: fumaric acid salt) [Example 2, 2-(3-ethyl-2-phenylindolizin-1-yl)ethylamine] registered a melting point of 173 to 176 °C.

In the case of `CCCc1c(-c2ccccc2)c(CCN)c2ccccn12` (as salt: fumaric acid salt) [Example 3, 2-(2-phenyl-3-propylindolizin-1-yl)ethylamine], the melting point lay within 169 to 172 °C.

As for `CCc1cn2ccccc2c1CCN` (as salt: fumaric acid salt) [Example 4, 2-(2-ethylindolizin-1-yl)ethylamine], the melting point is 170 to 175 °C (dec.).

For `CCc1c(CCN)c2ccccn2c1CC` (as salt: fumaric acid salt) [Example 5, 2-(2,3-diethylindolizin-1-yl)ethylamine], the melting point was in the range of 166 to 171 °C.

For the molecule `CCNCCc1c(CC)c(CC)n2ccccc12` (as salt: fumaric acid salt) [Example 6, N-[2-(2,3-diethylindolizin-1-yl)ethyl]-N-ethylamine], the melting point lay in the range of 154 to 158 °C.

Molecule `CCCc1c(CC)c(CCN)c2ccccn12` (as salt: fumaric acid salt) [Example 7, 2-(2-ethyl-3-propylindolizin-1-yl)ethylamine] gave a melting point of 154 to 158 °C.

With `CCCc1c(CC)c(CC(C)N)c2ccccn12` (stereo not drawn) (as salt: fumaric acid salt) [Example 9, 2-(2-ethyl-3-propylindolizin-1-yl)-1-methylethylamine], the melting point fell in the range of 184 to 186 °C.

Molecule `CCCc1c(C)c(CC(C)N)c2ccccn12` (stereo not drawn) (as salt: fumaric acid salt) [Example 10, 1-(2-methyl-3-propylindolizin-1-yl)propan-2-amine] yielded a melting point of 147 to 150 °C.

For the molecule `NCCc1c(-c2ccccc2)cn2ccccc12` [Example 1, 2-(2-phenylindolizin-1-yl)ethylamine], in data set [1] (read-out: 5-HT2C Affinity Ki), the Ki was 0.272 µM.

With `CCc1c(-c2ccccc2)c(CCN)c2ccccn12` [Example 2, 2-(3-ethyl-2-phenylindolizin-1-yl)ethylamine], the Ki in data set [1] (read-out: 5-HT2C Affinity Ki) worked out at 0.117 µM.

Take `CCCc1c(-c2ccccc2)c(CCN)c2ccccn12` [Example 3, 2-(2-phenyl-3-propylindolizin-1-yl)ethylamine]: the Ki in data set [1] (read-out: 5-HT2C Affinity Ki) was found to be 0.054 µM.

In turn, `CCc1cn2ccccc2c1CCN` [Example 4, 2-(2-ethylindolizin-1-yl)ethylamine] displayed an inhibitory constant (Ki) in data set [1] of 0.121 µM.

For `CCc1c(CCN)c2ccccn2c1CC` [Example 5, 2-(2,3-diethylindolizin-1-yl)ethylamine], in data set [1], the Ki was determined as 0.035 µM. Further, at human 5-HT2C receptor, the Emax is 80% and the concentration for a half-maximal effect (EC50) was 0.011 µM.

For the molecule `CCNCCc1c(CC)c(CC)n2ccccc12` [Example 6, N-[2-(2,3-diethylindolizin-1-yl)ethyl]-N-ethylamine], the Ki in data set [1] (read-out: 5-HT2C Affinity Ki) was found to be 0.228 µM.

In data set [1], `CCCc1c(CC)c(CCN)c2ccccn12` [Example 7, 2-(2-ethyl-3-propylindolizin-1-yl)ethylamine] displayed a Ki of 0.021 µM. Also, at human 5-HT2C receptor, the maximal response (Emax) was determined as 100% and the EC50 amounted to 0.019 µM.

For the molecule `CCCNCCc1c(CC)c(CCC)n2ccccc12` [Example 8], the Ki in data set [1] (read-out: 5-HT2C Affinity Ki) came out at 0.208 µM.

`CCCc1c(CC)c(CC(C)N)c2ccccn12` (stereo not drawn) [Example 9, 2-(2-ethyl-3-propylindolizin-1-yl)-1-methylethylamine]: the inhibition constant Ki in data set [1] (read-out: 5-HT2C Affinity Ki) was found to be 0.124 µM.

Turning to `CCCc1c(C)c(CC(C)N)c2ccccn12` (stereo not drawn) [Example 10, 1-(2-methyl-3-propylindolizin-1-yl)propan-2-amine], in data set [1], the affinity corresponds to a Ki of 0.017 µM. At human 5-HT2C receptor, the Emax amounted to 90% and the EC50 is 0.046 µM.

Turning to `CCCc1c(C)c(CC(N)CC)c2ccccn12` (stereo not drawn) [Example 11, 1-(2-methyl-3-propylindolizin-1-yl)butan-2-amine], the Ki in data set [1] (read-out: 5-HT2C Affinity Ki) turned out to be 0.457 µM.

As to `NCCc1c2c(n3ccccc13)CCCC2` [Example 12, 2-(1,2,3,4-tetrahydropyrido[1,2-a]indol-10-yl)ethylamine], in data set [1], affinity was put at a Ki of 0.098 µM.

Regarding `CSc1ccc2c(c1)C(N1CCN(C)CC1)Cc1ccccc1S2` (stereo not drawn) [Methiothepin, reference compound], in data set [1] (reference compounds, [125I]DOI radioligand, CHO cell membranes, read-out: Ki (95% confidence interval)), the Ki was found to be 0.0046 µM.
